Results published in patent US20030087906A1, “NITROGEN SUBSTITUTED BIARYL PURINE DERIVATIVES AS POTENT ANTIPROLIFERATIVE AGENTS” (priority 2001, published 2003).
Where “and” joins values, the source holds several entries; their conditions need not be identical. Equal entries are not always repeated.

What was measured:
HeLa S-3 cells = assay: Inhibition of cell growth of HeLa cells (SRB); format: cell-based, human; settings: 2 days of treatment, replicate experiments
Protocol: Growth inhibition (GI50) values were measured with HeLa S-3 cells selected for growth on plastic. […] One day later, a control plate was fixed by addition of TCA to 5%. After five rinses with tap water the plate was air dried and stored at 4° C. Test compounds were added to the remaining plates at 10-fold dilutions between 0.01 and 100 μM. Two days later all plates were fixed as described above. Cells were then stained by the addition of 100 μl per well of 0.4% sulforhodamine B (SRB) in 1% acetic acid for 30 min at 4° C. Wells were then quickly rinsed 5×with acetic acid (1%) and allowed to air dry. The SRB was then solubilized by the addition of 100 μl per well of unbuffered 10 mM Tris base. Dye was quantified by measuring absorbance at 490 nm on a Molecular Devices kinetic microplate reader. Growth at each inhibitor concentration relative to the untreated control was calculated according to the following equation: percent growth=100×(T−To)/(C−To), where T was the average optical density (OD) of the test wells after 2 days of treatment, To was the average OD of the wells in the control plate on day 0 and C was the average OD of untreated wells. Plots of percent growth versus inhibitor concentration were used to determine the GI50.

CyclinA/cdk2 = CyclinA/cdk2 (Homo sapiens, UniProt P24941); assay: CyclinA/cdk2 protein kinase assay (histone H1 phosphorylation); settings: IC50 CyclinA/cdk2, complex immunopurified from HeLa cells; 15 μM ATP; replicate experiments
CyclinE/cdk2 = CyclinE/cdk2 (Homo sapiens, UniProt P24941); assay: CyclinE/cdk2 protein kinase assay (histone H1 phosphorylation); settings: IC50 CyclinE/cdk2, complex immunopurified from HeLa cells; 15 μM ATP; replicate experiments
[1] = tested on: Tumor Cells in Hollow Fibers; assay: NCI Hollow Fiber Assay (in vivo evaluation); settings: for IP Score: IP fibers; for SC score: SC fibers

| GI50 (HeLa S-3 cells; Homo sapiens, HeLa S3, 48 h) [nM] | GI50 (HeLa S-3 cells) | Compound | further results |
| --- | --- | --- | --- |
| 3000 |  | CCCN(CCC)CCNc1nc(NCc2ccc(-c3ccccc3)cc2)c2ncn(C(C)C)c2n1 [Compound 210] |  |
| 300 |  | CC(=O)N[C@H]1CC[C@H](Nc2nc(NCc3ccc(-c4ccc(Cl)s4)cc3)c3ncn(C(C)C)c3n2)CC1 [Compound 265] |  |
|  | 300 nM | CC(C)n1cnc2c(NCc3ccc(-c4ccccc4)cc3)nc(N[C@H]3CC[C@H](NC(=O)C4CC4)CC3)nc21 [Compound 261] |  |
| 180 |  | CN1CC[C@H](c2c(O)cc(O)c3c(=O)cc(-c4ccccc4Cl)oc23)[C@H](O)C1 [Flavopiridol, reference compound] |  |
| 2000 |  | CCCNCCCCNc1nc(NCc2ccc(-c3ccccc3)cc2)c2ncn(C(C)C)c2n1 [Compound 215] |  |
|  | 8000 nM | CC(=O)N[C@H]1CC[C@H](Nc2nc(NCCc3ccc(-c4ccccc4)cc3)c3ncn(C(C)C)c3n2)CC1 [Compound 240] |  |
|  | 200 nM | CC(=O)N[C@H]1CC[C@H](Nc2nc(NCc3ccc(-c4ccco4)nc3)c3ncn(C(C)C)c3n2)CC1 [Compound 206] |  |
|  | 800 nM and 600 nM | CCN(C(C)=O)[C@H]1CC[C@H](Nc2nc(NCc3ccc(-c4ccccc4)cc3)c3ncn(C(C)C)c3n2)CC1 [Compound 267] |  |
| 300 |  | CC(C)n1cnc2c(NCc3ccc(-c4cccc(F)c4)nc3)nc(N[C@H]3CC[C@H](NC(=O)[C@H](C)NC(=O)OC(C)(C)C)CC3)nc21 [Compound 230] |  |
| 40 |  | CC(C)n1cnc2c(NCc3ccc(-c4cccc(F)c4)nc3)nc(N[C@H]3CC[C@H](NC(=O)[C@H](C)N)CC3)nc21 [Compound 231] |  |
| 300 | 500 nM | CC(C)n1cnc2c(NCc3ccc(-c4ccc(Cl)s4)cc3)nc(N[C@H]3CC[C@H](N)CC3)nc21 [Compound 264] |  |
|  | 300 nM and 200 nM and 500 nM | CC(C)n1cnc2c(NCc3ccc(-c4ccccc4)cc3)nc(N[C@H]3CC[C@H](N4C(=O)CCC4=O)CC3)nc21 [Compound 262] |  |
| 2000 |  | CCCNCCNc1nc(NCc2ccc(-c3ccccc3)cc2)c2ncn(C(C)C)c2n1 [Compound 209] |  |
|  | 300 nM and 700 nM | COC(=O)N[C@H]1CC[C@H](Nc2nc(NCc3ccc(-c4ccccc4)cc3)c3ncn(C(C)C)c3n2)CC1 [Compound 259] |  |
|  | > 10000 nM | CC(C)n1cnc2c(NCCc3ccc(-c4ccsc4)cc3)nc(N[C@H]3CC[C@H](NC(=O)OC(C)(C)C)CC3)nc21 [Compound 242] |  |
| > 10000 |  | CC(=O)N[C@H]1CC[C@H](Nc2nc(NCCOc3ccc(-c4ccccc4)cc3)c3ncn(C(C)C)c3n2)CC1 [Compound 249] |  |
|  | 6000 nM | CCCN[C@H]1CC[C@H](Nc2nc(NCCOc3ccc(-c4ccccc4)cc3)c3ncn(C(C)C)c3n2)CC1 [Compound 250] |  |
| 300 |  | CC(C)n1cnc2c(NCc3ccc(-c4cccc(F)c4)nc3)nc(N[C@H]3CC[C@H](NC(=O)CNC(=O)OC(C)(C)C)CC3)nc21 [Compound 232] |  |
| 6000 |  | CC(C)n1cnc2c(NCCc3ccc(-c4ccccc4)cc3)nc(N[C@H]3CC[C@H](N)CC3)nc21 [Compound 239] |  |
| 5000 |  | CC(=O)NCCCCNc1nc(NCc2ccc(-c3ccccc3)cc2)c2ncn(C(C)C)c2n1 [Compound 214] |  |
| 500 |  | CC(C)n1cnc2c(NCc3ccc(-c4cccc(F)c4)nc3)nc(N[C@H]3CC[C@H](NC(=O)CN)CC3)nc21 [Compound 233] |  |

More lines, now with the values behind:

| Compound | GI50 (HeLa S-3 cells; Homo sapiens, HeLa S3, 48 h) [nM] | GI50 (HeLa S-3 cells) | further results |
| --- | --- | --- | --- |
| Cc1ccc(-c2ccc(CNc3nc(N[C@H]4CC[C@H](N)CC4)nc4c3ncn4C(C)C)cc2)s1 [Compound 157] | 500 |  |  |
| CC(C)n1cnc2c(NCc3cccc(-c4ccccc4)c3)nc(N[C@H]3CC[C@H](NC(=O)OC(C)(C)C)CC3)nc21 [Compound 133] |  | > 10000 nM |  |
| CC(=O)N[C@@H](C)CNc1nc(NCc2ccc(-c3ccccc3)cc2)c2ncn(C(C)C)c2n1 [Compound 108] | 3000 |  | IC50 (CyclinA/cdk2): > 10000 nM; IC50 (CyclinE/cdk2): > 10000 nM |
| CC(=O)N[C@H]1CC[C@H](Nc2nc(NCc3ccc(-c4ccc(C)cc4)cc3)c3ncn(C(C)C)c3n2)CC1 [Compound 97] | 3000 |  | IC50 (CyclinA/cdk2): > 10000 nM; IC50 (CyclinE/cdk2): 3000 nM |
| CC(=O)N[C@H]1CC[C@H](Nc2nc(NCc3ccc(-c4cc(C)cs4)cc3)c3ncn(C(C)C)c3n2)CC1 [Compound 161] |  | 200 nM |  |
| CC[C@H](CO)Nc1nc(NCc2ccc(-c3ccc(C(O)CO)cc3)cc2)c2ncn(C(C)C)c2n1 (some centres unmarked) [Compound 34] | 7000 |  |  |
| CC(=O)N[C@H]1CC[C@H](Nc2nc(NCc3ccc(-c4ccoc4)cc3)c3ncn(C(C)C)c3n2)CC1 [Compound 165] |  | 200 nM and 100 nM |  |
| COc1cccc(-c2ccc(CNc3nc(N[C@H]4CC[C@H](NC(C)=O)CC4)nc4c3ncn4C(C)C)cc2)c1 [Compound 180] |  | 300 nM |  |
| CC(=O)N[C@H]1CC[C@H](Nc2nc(NCc3ccc(-c4cccc(C)c4)cc3)c3ncn(C(C)C)c3n2)CC1 [Compound 178] |  | 200 nM |  |
| CCCN[C@H]1CC[C@H](Nc2nc(NCc3ccc(-c4cc(C)cc(C)c4)cc3)c3ncn(C(C)C)c3n2)CC1 [Compound 151] | 800 | 600 nM |  |
| CCCN(CCC)[C@H]1CC[C@H](Nc2nc(NCc3ccc(-c4cc(C)cc(C)c4)cc3)c3ncn(C(C)C)c3n2)CC1 [Compound 152] |  | 700 nM and 300 nM |  |
| CC(C)n1cnc2c(NCc3ccc(-c4ccoc4)cc3)nc(N[C@H]3CC[C@H](N)CC3)nc21 [Compound 164] | 200 |  |  |
| CC(=O)N[C@H]1CC[C@H](Nc2nc(NCc3ccc(-c4cccc(Cl)c4)cc3)c3ncn(C(C)C)c3n2)CC1 [Compound 110] |  | 20 nM | Cell Types Killed [1]: OVCAR-3; IP Score [1]: 14; SC score [1]: 0; IC50 (CyclinA/cdk2): 600 nM; IC50 (CyclinE/cdk2): 2000 nM |
| CC(=O)N[C@H]1CC[C@H](Nc2nc(NCc3ccc(-c4ccc(C)s4)cc3)c3ncn(C(C)C)c3n2)CC1 [Compound 158] |  | 600 nM |  |
| CC(=O)N[C@H]1CC[C@H](Nc2nc(NCc3ccc(-c4cccc(F)c4)nc3)c3ncn(C(C)C)c3n2)CC1 [Compound 188] |  | 200 nM and 70 nM |  |
| CC(C)n1cnc2c(NCc3ccc(-c4ccco4)cc3)nc(N[C@H]3CC[C@H](N)CC3)nc21 [Compound 181] | 40 |  |  |

| Compound | GI50 (HeLa S-3 cells; Homo sapiens, HeLa S3, 48 h) [nM] | GI50 (HeLa S-3 cells) | further results |
| --- | --- | --- | --- |
| CC(Nc1nc(N[C@H]2CC[C@H](N)CC2)nc2c1ncn2C(C)C)c1ccc(-c2ccsc2)cc1 (some centres unmarked) [Compound 257] | 3000 |  |  |
| CC(C)n1cnc2c(NCc3cccc(-c4ccsc4)c3)nc(N[C@H]3CC[C@H](NC(=O)OC(C)(C)C)CC3)nc21 [Compound 130] |  | > 10000 nM |  |
| CC(C)n1cnc2c(NCc3ccc(-c4cccc(Cl)c4)cc3)nc(N[C@H]3CC[C@H](N)CC3)nc21 [Compound 109] |  |  | IC50 (CyclinA/cdk2): 600 nM; IC50 (CyclinE/cdk2): 100 nM |
| CC(=O)N[C@H]1CC[C@H](Nc2nc(NCc3ccc(-c4ccsc4)nc3)c3ncn(C(C)C)c3n2)CC1 [Compound 124] |  |  | Cell Types Killed [1]: OVCAR-3; IP Score [1]: 28; SC score [1]: 0; IC50 (CyclinA/cdk2): 2000 nM; IC50 (CyclinE/cdk2): 800 nM |
| Cc1csc(-c2ccc(CNc3nc(N[C@H]4CC[C@H](N)CC4)nc4c3ncn4C(C)C)cc2)c1 [Compound 160] | 200 |  |  |
| CC(C)n1cnc2c(NCc3ccc(-c4ccccc4)cc3)nc(NC[C@H](C)N)nc21 [Compound 107] |  |  | IC50 (CyclinA/cdk2): 1000 nM and 4000 nM; IC50 (CyclinE/cdk2): 2000 nM |
| CC[C@H](CO)Nc1nc(NCc2ccc(-c3cccc(N)c3)cc2)c2ncn(C(C)C)c2n1 [Compound 36] | 20000 |  |  |
| CC(=O)N[C@H]1CC[C@H](Nc2nc(NCc3ccc(-c4ccco4)cc3)c3ncn(C(C)C)c3n2)CC1 [Compound 182] | 300 |  |  |
| CC(=O)N[C@H]1CC[C@H](Nc2nc(NCc3ccc(-c4ccc(F)cc4)cc3)c3ncn(C(C)C)c3n2)CC1 [Compound 102] |  |  | IC50 (CyclinA/cdk2): > 10000 nM; IC50 (CyclinE/cdk2): 4000 nM |
| CCCN[C@H]1CC[C@H](Nc2nc(NCc3ccc(-c4cc(C)cs4)cc3)c3ncn(C(C)C)c3n2)CC1 [Compound 162] | 200 |  |  |
| CC(C)n1cnc2c(NCc3ccc(-c4cccs4)nc3)nc(N[C@H]3CC[C@H](N)CC3)nc21 [Compound 199] |  | 200 nM and 90 nM |  |
| CCCN[C@H]1CC[C@H](Nc2nc(NCc3ccc(-c4cc(OC)ccc4OC)cc3)c3ncn(C(C)C)c3n2)CC1 [Compound 155] | 500 | 800 nM |  |
| CC(=O)N[C@H]1CC[C@H](Nc2nc(NCc3ccc(-c4cccs4)cc3)c3ncn(C(C)C)c3n2)CC1 [Compound 112] |  |  | Cell Types Killed [1]: OVCAR-3; IP Score [1]: 18; SC score [1]: 2; IC50 (CyclinA/cdk2): 2000 nM; IC50 (CyclinE/cdk2): 2000 nM |
| CC(C)n1cnc2c(NCc3ccc(I)cc3)nc(N[C@H]3CC[C@H](N)CC3)nc21 [Compound 11] |  |  | IC50 (CyclinA/cdk2): 200 nM; IC50 (CyclinE/cdk2): 70 nM |
| CC(C)n1cnc2c(NCc3ccc(-c4cccc(F)c4)nc3)nc(N[C@H]3CC[C@H](N)CC3)nc21 [Compound 187] | 50 | 30 nM |  |
